Values quoted from earlier work, collected in patent US8440213B2, “Pesticides formulations” (priority 2003, dated 2013).
In brackets after ≈: the same amount, converted by molar mass.

Settings: in water, at 20° C.

Structure (SMILES) | Solubility [µg/mL]
CCOP(=S)(OCC)Oc1nc(Cl)c(Cl)cc1Cl [Chlorpyriphos] | 1.4 (≈ 3.99 µM)
CCOc1ccc(C(C)(C)COCc2cccc(Oc3ccccc3)c2)cc1 [Etofenprox, 2-(4-ethoxyphenyl)-2-methylpropyl 3-phenoxybenzyl ether] | <0.001
COc1nn(CSP(=S)(OC)OC)c(=O)s1 [Methidathion] | 200 (≈ 662 µM)
CCCN(CCC)c1c([N+](=O)[O-])cc(C(F)(F)F)cc1[N+](=O)[O-] [Trifluralin, α,α,α,-trifluoro-2,6-dinitro-N,N-dipropyl-p-toluidine] | 0.4 (≈ 1.19 µM)
